Like-named read-outs stand apart in the source and are kept apart here.
Assay: Phase one study part 1: single dose plasma PK of free and total DGLA, fasted
Format: in vivo, human
Settings: for half-life / Tmax: both sexes, human, plasma, oral; for half-life: read-out: t1/2, median, free DGLA, baseline-corrected plasma (converted)
Procedure: A single-center, double-blind, randomized, placebo-controlled, two part Phase one study was performed in healthy male and female subjects aged 18 to 45 years inclusive. The primary objective of this study was to assess the safety and plasma pharmacokinetics (PK) of orally administered single doses and orally administered multiple doses of DS107G capsules (once daily for 28 days) in healthy subjects.
Subjects were randomly assigned in a 3:1 ratio of DG107G to placebo by block randomization. Single dose part one of the study comprised three cohorts of eight subjects each, with the addition of Cohort four based on evaluation of the safety data of Cohort three by the Safety Monitoring Committee (SMC). A single oral dose of DS107G or matching placebo was administered to fasted subjects in Cohorts one to three (500, 1000, and 2000 mg, respectively) in parallel; subjects in Cohort four were administered a dose of 4000 mg following completion of Cohort three. Subjects in Cohort two received 1000 mg or matching placebo in the fed state at 14 days after the first dose.
Safety assessments were monitored throughout the study.
In Part one of the study, subjects in Cohorts one to three were administered a single dose of study drug (either 500-, 1000-, or 2000-mg as 500-mg DS107G capsules or matching placebo capsules) in parallel on study Day 1 after at least an 8-hour fast, according to Table 20. Cohort 4 was initiated following the review of safety data from Cohort 3 by the SMC.
Analysis of populations included the following: • The Intention-to-Treat (ITT) population consists of all randomized subjects who had been administered at least 1 dose of study drug. • The Per Protocol (PP) population consists of all subjects in the ITT population who had no major protocol violation, as defined in the SAP. • The PK population contains all subjects included in the PP population who had evaluable PK data derived from plasma. A plasma concentration observation was considered a valid, evaluable measurement if the following data were available: study identification number, randomization number, date and time of sampling, dose and concentration. A series of such measurements from the same sample were considered complete if each protocol prescribed concentration was evaluable. Plasma PK data were evaluable by definition if the data contained a complete series of observations. Any missing plasma PK observation would result in incomplete PK data, thus a subject with any missing plasma PK observation was excluded from the PK population. Subjects randomized to placebo were also excluded from the PK population.

CCCCC/C=C\C/C=C\C/C=C\CCCCCCC(=O)O [DS107G, Dihomo gamma linolenic acid]
AUC0-24, mean, free DGLA, baseline-corrected plasma (500 mg single dose): 2728.1 ng·h/mL
AUC0-24/Dose, mean, free DGLA, baseline-corrected plasma (500 mg single dose): 5.46 h/kL
AUC0-24/Dose, mean, total DGLA, baseline-corrected plasma (500 mg single dose): 79.11 h/kL
AUC0-inf, mean, free DGLA, baseline-corrected plasma (500 mg single dose): 21483.3 ng·h/mL
AUC0-inf/Dose, mean, free DGLA, baseline-corrected plasma (500 mg single dose): 42.97 h/kL
AUC0-inf/Dose, mean, total DGLA, baseline-corrected plasma (500 mg single dose): 8831.93 h/kL
CL/F, mean, free DGLA, baseline-corrected plasma (500 mg single dose): 0.0306 kL/h
Cmax, mean, free DGLA, baseline-corrected plasma (500 mg single dose): 934.6 ng/mL
Cmax/Dose, mean, free DGLA, baseline-corrected plasma (500 mg single dose): 1.869 kL⁻¹
Cmax/Dose, mean, total DGLA, baseline-corrected plasma (500 mg single dose): 14.400 kL⁻¹
λz, mean, free DGLA, baseline-corrected plasma (500 mg single dose): 0.0035 h⁻¹
λz, mean, total DGLA, baseline-corrected plasma (500 mg single dose): 0.0013 h⁻¹
AUC0-24, mean, free DGLA, baseline-corrected plasma (1000 mg single dose): 3998.5 ng·h/mL
AUC0-24/Dose, mean, free DGLA, baseline-corrected plasma (1000 mg single dose): 4.00 h/kL
AUC0-24/Dose, mean, total DGLA, baseline-corrected plasma (1000 mg single dose): 215.37 h/kL
AUC0-inf, mean, free DGLA, baseline-corrected plasma (1000 mg single dose): 218955.6 ng·h/mL
AUC0-inf/Dose, mean, free DGLA, baseline-corrected plasma (1000 mg single dose): 218.96 h/kL
AUC0-inf/Dose, mean, total DGLA, baseline-corrected plasma (1000 mg single dose): 4031.41 h/kL
CL/F, mean, free DGLA, baseline-corrected plasma (1000 mg single dose): 0.1866 kL/h
Cmax, mean, free DGLA, baseline-corrected plasma (1000 mg single dose): 1602.8 ng/mL
Cmax/Dose, mean, free DGLA, baseline-corrected plasma (1000 mg single dose): 1.603 kL⁻¹
Cmax/Dose, mean, total DGLA, baseline-corrected plasma (1000 mg single dose): 15.750 kL⁻¹
λz, mean, free DGLA, baseline-corrected plasma (1000 mg single dose): 0.0487 h⁻¹
λz, mean, total DGLA, baseline-corrected plasma (1000 mg single dose): 0.0136 h⁻¹
AUC0-24, mean, free DGLA, baseline-corrected plasma (2000 mg single dose): 6429.0 ng·h/mL
AUC0-24/Dose, mean, free DGLA, baseline-corrected plasma (2000 mg single dose): 3.21 h/kL
AUC0-24/Dose, mean, total DGLA, baseline-corrected plasma (2000 mg single dose): 105.25 h/kL
AUC0-inf, mean, free DGLA, baseline-corrected plasma (2000 mg single dose): 26877.0 ng·h/mL
AUC0-inf/Dose, mean, free DGLA, baseline-corrected plasma (2000 mg single dose): 13.44 h/kL
AUC0-inf/Dose, mean, total DGLA, baseline-corrected plasma (2000 mg single dose): 1138.25 h/kL
CL/F, mean, free DGLA, baseline-corrected plasma (2000 mg single dose): 0.1339 kL/h
Cmax, mean, free DGLA, baseline-corrected plasma (2000 mg single dose): 2074.0 ng/mL
Cmax/Dose, mean, free DGLA, baseline-corrected plasma (2000 mg single dose): 1.037 kL⁻¹
Cmax/Dose, mean, total DGLA, baseline-corrected plasma (2000 mg single dose): 8.867 kL⁻¹
λz, mean, free DGLA, baseline-corrected plasma (2000 mg single dose): 0.0200 h⁻¹
λz, mean, total DGLA, baseline-corrected plasma (2000 mg single dose): 0.0084 h⁻¹
AUC0-24, mean, free DGLA, baseline-corrected plasma (4000 mg single dose): 9436.8 ng·h/mL
AUC0-24/Dose, mean, free DGLA, baseline-corrected plasma (4000 mg single dose): 2.36 h/kL
AUC0-24/Dose, mean, total DGLA, baseline-corrected plasma (4000 mg single dose): 109.44 h/kL
AUC0-inf, mean, free DGLA, baseline-corrected plasma (4000 mg single dose): 17113.6 ng·h/mL
AUC0-inf/Dose, mean, free DGLA, baseline-corrected plasma (4000 mg single dose): 4.28 h/kL
AUC0-inf/Dose, mean, total DGLA, baseline-corrected plasma (4000 mg single dose): 1493.38 h/kL
CL/F, mean, free DGLA, baseline-corrected plasma (4000 mg single dose): 0.2420 kL/h
Cmax, mean, free DGLA, baseline-corrected plasma (4000 mg single dose): 3021.8 ng/mL
Cmax/Dose, mean, free DGLA, baseline-corrected plasma (4000 mg single dose): 0.755 kL⁻¹
Cmax/Dose, mean, total DGLA, baseline-corrected plasma (4000 mg single dose): 6.471 kL⁻¹
λz, mean, free DGLA, baseline-corrected plasma (4000 mg single dose): 0.0603 h⁻¹
λz, mean, total DGLA, baseline-corrected plasma (4000 mg single dose): 0.0102 h⁻¹
half-life (500 mg single dose): 206 h
Tmax (500 mg single dose, read-out: tmax, median, free DGLA, baseline-corrected plasma): 4 h
half-life (1000 mg single dose): 28.3 h
Tmax (1000 mg single dose, read-out: tmax, median, free DGLA, baseline-corrected plasma): 4 h
half-life (2000 mg single dose): 57.3 h
Tmax (2000 mg single dose, read-out: tmax, median, free DGLA, baseline-corrected plasma): 4 h
half-life (4000 mg single dose): 67.5 h
Tmax (4000 mg single dose, read-out: tmax, median, free DGLA, baseline-corrected plasma): 4 h
Tmax (single dose 500-4000 mg, read-out: median time to maximum concentration (Tmax), free DGLA): 4 h
dose dependence of mean baseline-corrected Cmax and AUC0-24, free and total DGLA (single dose 500-4000 mg): increased in a linear manner

Source: patent US20180333382A1, “PHARMACEUTICAL COMPOSITIONS COMPRISING DGLA AND USE OF SAME” (DS Biopharma Limited, priority 2017, published 2018)
